Test results as given in patent US10130641B2, “Compositions of vitamin D and methods for their use and manufacture” (priority 2015, dated 2018).

Assay: Plasma concentration of vitamin D3 in rats after a single oral dose (absorption / bioavailability study)
Format: in vivo, Wistar rats
Settings: for Cmax / Tmax / AUC: Area Under the plasma conc.-time Curve: rat plasma, 50,000 IU oral; for AUC: Area Under the plasma conc.-time Curve: trapezoid rule; for Mean plasma concentration of vitamin D3: rat, 50,000 IU oral
Experimental: The present study was undertaken to compare the rate of absorption of vitamin D3, from formulated vitamin D3 with tomato seed oil and high-fat meal. The absorption was studied by serial measurements of the plasma concentration of vitamin D3 after ingestion of a pharmacological dose of the vitamin dissolved in the vehicles.
Male Albino Wistar rats were used. Animals were kept under a twelve-hour light/dark cycle. Group I was treated with normal diet and vitamin D3 (50,000 IU). Group II was given Vitamin D3 (50,000 IU) with High-Fat diet. Group III was treated with Vitamin D3 (50,000 IU) formulation in tomato seed oil orally. 10 mL/kg body weight was used for gavage administration. […] Animals were ether anesthetized and blood samples (approximately 0.5 mL) were collected via retro-orbital sinus puncture.
Blood samples were collected in heparinized eppendorf tubes. Tubes were inverted several times to mix and were then placed on ice and centrifuged to separate plasma within 1 h time. After centrifugation, plasma was transferred into storage tubes (0.5 mL), which were stored frozen (approximately −70° C.) until analyzed.
Plasma processing involved liquid-liquid extraction using acetonitrile and methanol (80:20). 100 μL aliquot of plasma was mixed with 1 mL of acetonitrile and methanol. After vortex mixing for 1 min, the sample was centrifuged at 7,000 rpm at 4° C. for 10 min to remove precipitated proteins; the supernatant was transferred to a clean tube and dried under nitrogen at room temperature (approximately 25° C.). After the evaporation was completed, the residue was reconstituted in 100 μL of methanol with 5 min of sonication, added to 400 μL of water, vortex mixed, and centrifuged again. The resulting supernatant was transferred to a sample vial for instrumental analysis.
Chromatography was performed using a Phenomenex C18 […]×4.6 mm, 5 μm column, maintained at a temperature of 35° C. A flow rate of 1 mL/min was used; mobile phase acetonitrile and methanol (80:20); elution gradient program, injection volume 5 μL, detection UV, 280 nm. Total run time was 15 min.
The data was represented in a plasma level-time curve. The area under time curve (AUC) was calculated using Trapezoid rule. The maximum concentration (Cmax) and maximum time (Tmax) were obtained directly from generated data. The maximum plasma concentration (Cmax) and the time to reach Cmax (Tmax) were obtained directly from the plasma concentration-time curve. All values were expressed as mean±standard deviation (SD) except Tmax mentioned as median.

Row | SMILES | Cmax (high-fat diet) [µg/mL] | Tmax (high-fat diet) [h] | AUC: Area Under the plasma conc.-time Curve (high-fat diet) | Mean plasma concentration of vitamin D3 (high-fat diet, 0 min) [µg/mL] | Mean plasma concentration of vitamin D3 (high-fat diet, 30 min) [µg/mL] | Cmax (normal diet) [µg/mL] | Tmax (normal diet) [h] | AUC: Area Under the plasma conc.-time Curve (normal diet) | Mean plasma concentration of vitamin D3 (normal diet, 0 min) [µg/mL] | Mean plasma concentration of vitamin D3 (normal diet, 30 min) [µg/mL] | Mean plasma concentration of vitamin D3 (normal diet, 1 hrs) [µg/mL] | Mean plasma concentration of vitamin D3 (normal diet, 2 hrs) [µg/mL] | Mean plasma concentration of vitamin D3 (normal diet, 3 hrs) [µg/mL] | Mean plasma concentration of vitamin D3 (normal diet, 4 hrs) [µg/mL] | Mean plasma concentration of vitamin D3 (normal diet, 6 hrs) [µg/mL] | Mean plasma concentration of vitamin D3 (normal diet, 8 hrs) [µg/mL] | Mean plasma concentration of vitamin D3 (normal diet, 12 hrs) [µg/mL] | Mean plasma concentration of vitamin D3 (normal diet, 24 hrs) [µg/mL] | Mean plasma concentration of vitamin D3 (normal diet, 48 hrs) [µg/mL] | Mean plasma concentration of vitamin D3 (normal diet, 72 hrs) [µg/mL]
1 | C=C1CC[C@H](O)C/C1=C/C=C1\CCC[C@]2(C)[C@@H]([C@H](C)CCCC(C)C)CC[C@@H]12 [Vitamin D3 + High-Fat Diet, cholecalciferol] | 86.09 ± 12.14 | 12 | 1595 + 600.6 μg · hr/ml | 0 | 0 | – | – | – | – | – | – | – | – | – | – | – | – | – | – | –
2 | C=C1CC[C@H](O)C/C1=C/C=C1\CCC[C@]2(C)[C@@H]([C@H](C)CCCC(C)C)CC[C@@H]12 [Vitamin D3 + Normal Diet, cholecalciferol] | – | – | – | – | – | 47.03 ± 4.15 | 24 | 3478 + 1758 μg · hr/ml | 0 | 0 | 1.867 ± 0.80 | 4.31 ± 1.53 | 9.87 ± 4.14 | 12 ± 4.97 | 10.74 ± 8.06 | 13.59 ± 4.160 | 16.06 ± 3.50 | 47.03 ± 4.15 | 17.94 ± 1.33 | 1.07 ± 0.35
